Results taken from patent US10202351B2, “Pyrazolyl derivatives as pest control agents” (BAYER ANIMAL HEALTH GMBH, priority 2015, dated 2019).

How the values were obtained:
Assay type in all cases: in vivo
Phaedon cochleariae = Phaedon cochleariae spray test; conditions: application rate 100 g/ha, larvae on Chinese cabbage leaf discs, after 7 days
Protocol: (§1) Solvent: 78.0 parts by weight of acetone • • 1.5 parts by weight of dimethylformamide Emulsifier: alkylaryl polyglycol ether […] To produce further test concentrations, the formulation is diluted with emulsifier-containing water. Discs of Chinese cabbage leaves (Brassica pekinensis) are sprayed with an active ingredient formulation of the desired concentration and, after drying, populated with larvae of the mustard beetle (Phaedon cochleariae).

Lucilia cuprina = Lucilia cuprina test; conditions: application rate 100 ppm, L1 larvae, kill after 2 days
Protocol: (§2) Solvent: dimethyl sulfoxide
(§3) To produce a suitable preparation of active compound, 10 mg of active compound are mixed with 0.5 ml of dimethyl sulfoxide, and the concentrate is diluted with water to the desired concentration.
About 20 L1 larvae of the Australian sheep blowfly (Lucilia cuprina) are transferred into a test vessel containing minced horsemeat and the active compound formulation of the desired concentration.
After 2 days, the kill in % is determined. 100% means that all the larvae have been killed; 0% means that no larvae have been killed.

Ctenocephalides felis = Ctenocephalides felis oral test; conditions: application rate 100 ppm in citrated cattle blood, kill after 2 days
From the text: Solvent: dimethyl sulfoxide […] Dilution with citrated cattle blood gives the desired concentration. About 20 unfed adult cat fleas (Ctenocephalides felis) are placed into a chamber which is closed at the top and bottom with gauze. A metal cylinder whose bottom end is closed with parafilm is placed onto the chamber. The cylinder contains the blood/active ingredient formulation, which can be imbibed by the fleas through the parafilm membrane.

Spodoptera frugiperda = Spodoptera frugiperda spray test; conditions: application rate 100 g/ha, caterpillars on maize leaf discs, after 7 days
Protocol: as §1, with “Leaf discs” for “Discs”, “maize (Zea mays)” for “Chinese cabbage leaves (Brassica pekinensis)”, “compound” for “ingredient”, “caterpillars” for “larvae”, “armyworm (Spodoptera frugiperda).” for “mustard beetle (Phaedon cochleariae).”

Boophilus microplus = Boophilus microplus injection test; conditions: application rate 20 μg/animal, after 7 days, laying of fertile eggs
Protocol: Solvent: dimethyl sulfoxide […] The animals are transferred into dishes and kept in a climate-controlled room. Efficacy is assessed after 7 days by laying of fertile eggs. Eggs which are not visibly fertile are stored in a climate-controlled cabinet until the larvae hatch after about 42 days.

Musca domestica = Musca domestica test; conditions: application rate 100 ppm, adult houseflies, kill after 2 days
Protocol: as §2, §3
Vessels containing a sponge treated with sugar solution and the active ingredient formulation of the desired concentration are populated with 10 adult houseflies (Musca domestica)).
After 2 days, the kill in % is determined. 100% means that all of the flies have been killed; 0% means that none of the flies have been killed.

In the case of Cc1cc(C(F)(C(F)(F)F)C(F)(F)F)cc(C(F)(F)F)c1-n1cc(-c2cccc(NC(=O)c3cccs3)c2F)cn1 [Example 76], the efficacy (Phaedon cochleariae) was 100%, the efficacy (Lucilia cuprina) was 100% and the efficacy (Ctenocephalides felis) was 100%. For the same molecule, the efficacy (Spodoptera frugiperda) was 100% and the efficacy (Boophilus microplus) was 100%.
Cc1cc(C(F)(C(F)(F)F)C(F)(F)F)cc(C(F)(F)F)c1-n1cc(-c2ccc(F)c(N(C)C(=O)c3ccc(F)nc3)c2F)cn1 [Example 41] gave an efficacy (Phaedon cochleariae) of 100%, an efficacy (Musca domestica) of 100% and an efficacy (Lucilia cuprina) of 100%. For the same molecule, the efficacy (Ctenocephalides felis) was 100%, the efficacy (Spodoptera frugiperda) was 83% and the efficacy (Boophilus microplus) was 100%.
Work on COc1ccc(C(=O)Nc2ccc(F)c(-c3cnn(-c4c(C)cc(C(F)(C(F)(F)F)C(F)(F)F)cc4C(F)(F)F)c3)c2)cc1F [Example 2-6] yielded an efficacy (Boophilus microplus) of 80%.
Cc1cc(C(F)(C(F)(F)F)C(F)(F)F)cc(C(F)(F)F)c1-n1cc(-c2cc(NC(=O)c3cnco3)ccc2F)cn1 [Example 2-11] gave an efficacy (Phaedon cochleariae) of 100%, an efficacy (Lucilia cuprina) of 100% and an efficacy (Ctenocephalides felis) of 100%. For the same molecule, the efficacy (Spodoptera frugiperda) was 100% and the efficacy (Boophilus microplus) was 100%.
Cc1ccc(C(=O)Nc2cc(-c3cnn(-c4c(C)cc(C(F)(C(F)(F)F)C(F)(F)F)cc4C(F)(F)F)c3)ccc2F)cc1C [Example 52] showed an efficacy (Musca domestica) of 100% and an efficacy (Boophilus microplus) of 100%.
Cc1cc(C(F)(C(F)(F)F)C(F)(F)F)cc(C(F)(F)F)c1-n1cc(-c2ccc(F)c(NC(=O)c3cccs3)c2F)cn1 [Example 26] was tested, and the efficacy (Phaedon cochleariae) was 100%, the efficacy (Lucilia cuprina) was 100% and the efficacy (Ctenocephalides felis) was 100%. It also gave an efficacy (Spodoptera frugiperda) of 100% and an efficacy (Boophilus microplus) of 100%.
Work on Cc1cc(C(F)(C(F)(F)F)C(F)(F)F)cc(C(F)(F)F)c1-n1cc(-c2ccc(F)c(NC(=O)c3ccc(Cl)nc3)c2)cn1 [Example 49] yielded an efficacy (Phaedon cochleariae) of 100%, an efficacy (Musca domestica) of 100% and an efficacy (Lucilia cuprina) of 100%. For the same molecule, the efficacy (Ctenocephalides felis) was 100% and the efficacy (Spodoptera frugiperda) was 100%.
For COc1cc(C(=O)Nc2cccc(-c3cnn(-c4c(C)cc(C(F)(C(F)(F)F)C(F)(F)F)cc4C(F)(F)F)c3)c2F)ccc1C#N [Example 74], the efficacy (Phaedon cochleariae) was 100%, the efficacy (Lucilia cuprina) was 100% and the efficacy (Spodoptera frugiperda) was 100%. For the same molecule, the efficacy (Boophilus microplus) was 100%.
For Cc1cc(C(F)(C(F)(F)F)C(F)(F)F)cc(C(F)(F)F)c1-n1cc(-c2ccc(N(C)C)c(NC(=O)C3(C)CC3)c2)cn1 [Example 36], the efficacy (Phaedon cochleariae) was 100%, the efficacy (Lucilia cuprina) was 100% and the efficacy (Ctenocephalides felis) was 100%. It also gave an efficacy (Spodoptera frugiperda) of 100% and an efficacy (Boophilus microplus) of 100%.
Work on Cc1ncc(-c2cnn(-c3c(Cl)cc(C(F)(C(F)(F)F)C(F)(F)F)cc3Cl)c2)cc1NC(=O)c1ccncc1 [Example 18] yielded an efficacy (Phaedon cochleariae) of 83% and an efficacy (Spodoptera frugiperda) of 100%.
COc1cc(C(=O)Nc2cc(-c3cnn(-c4c(C)cc(C(F)(C(F)(F)F)C(F)(F)F)cc4C(F)(F)F)c3)ccc2F)ccc1C#N [Example 35] showed an efficacy (Phaedon cochleariae) of 100% and an efficacy (Spodoptera frugiperda) of 100%.
COc1ccc(C(=O)Nc2cc(-c3cnn(-c4c(C)cc(C(F)(C(F)(F)F)C(F)(F)F)cc4C(F)(F)F)c3)ccc2F)cc1F [Example 55] showed an efficacy (Phaedon cochleariae) of 100%, an efficacy (Lucilia cuprina) of 80% and an efficacy (Ctenocephalides felis) of 100%. For the same molecule, the efficacy (Boophilus microplus) was 100%.
With Cc1cc(C(F)(C(F)(F)F)C(F)(F)F)cc(C(F)(F)F)c1-n1cc(-c2cccc(NC(=O)c3ccc(Cl)nc3)c2F)cn1 [Example 70] the efficacy (Phaedon cochleariae) was 100%, the efficacy (Musca domestica) was 100% and the efficacy (Lucilia cuprina) was 100%. It also gave an efficacy (Ctenocephalides felis) of 100%, an efficacy (Spodoptera frugiperda) of 100% and an efficacy (Boophilus microplus) of 100%.
COc1cc(C(=O)Nc2ccc(F)c(-c3cnn(-c4c(C)cc(C(F)(C(F)(F)F)C(F)(F)F)cc4C(F)(F)F)c3)c2)ccc1C#N [Example 2-8] gave an efficacy (Phaedon cochleariae) of 83%, an efficacy (Lucilia cuprina) of 90% and an efficacy (Boophilus microplus) of 100%.
With Cc1cc(C(F)(C(F)(F)F)C(F)(F)F)cc(C(F)(F)F)c1-n1cc(-c2ccc(N(C)C)c(NC(=O)c3ccsc3)c2)cn1 [Example 37] the efficacy (Phaedon cochleariae) was 100%, the efficacy (Lucilia cuprina) was 100% and the efficacy (Ctenocephalides felis) was 100%. For the same molecule, the efficacy (Spodoptera frugiperda) was 100% and the efficacy (Boophilus microplus) was 100%.
COc1cc(C(=O)Nc2c(F)ccc(-c3cnn(-c4c(C)cc(C(F)(C(F)(F)F)C(F)(F)F)cc4C(F)(F)F)c3)c2F)ccc1F [Example 27] was tested, and the efficacy (Lucilia cuprina) was 90%, the efficacy (Ctenocephalides felis) was 100% and the efficacy (Boophilus microplus) was 100%.
Molecule COc1ccc(C(=O)Nc2cccc(-c3cnn(-c4c(C)cc(C(F)(C(F)(F)F)C(F)(F)F)cc4C(F)(F)F)c3)c2F)cc1F [Example 72] has an efficacy (Phaedon cochleariae) of 100%, an efficacy (Lucilia cuprina) of 100% and an efficacy (Ctenocephalides felis) of 95%. It also gave an efficacy (Boophilus microplus) of 100%.
Work on Cc1cc(C(F)(C(F)(F)F)C(F)(F)F)cc(C(F)(F)F)c1-n1cc(-c2cccc(NC(=O)c3ccsc3)c2F)cn1 [Example 75] yielded an efficacy (Lucilia cuprina) of 80%, an efficacy (Ctenocephalides felis) of 95% and an efficacy (Boophilus microplus) of 100%.
COc1cc(C(=O)Nc2cc(-c3cnn(-c4c(C)cc(C(F)(C(F)(F)F)C(F)(F)F)cc4C(F)(F)F)c3)ccc2F)ccc1C [Example 47] gave an efficacy (Ctenocephalides felis) of 80% and an efficacy (Boophilus microplus) of 100%.
Cc1cc(C(F)(C(F)(F)F)C(F)(F)F)cc(C(F)(F)F)c1-n1cc(-c2cc(NC(=O)c3ccsc3)ccc2F)cn1 [Example 2-9] was tested, and the efficacy (Lucilia cuprina) was 100%, the efficacy (Ctenocephalides felis) was 95% and the efficacy (Boophilus microplus) was 100%.
Cc1cc(C(F)(C(F)(F)F)C(F)(F)F)cc(C)c1-n1cc(-c2ccc(N(C)C)c(NC(=O)c3ccc(F)cc3)c2)cn1 [Example 21] gave an efficacy (Ctenocephalides felis) of 100%, an efficacy (Spodoptera frugiperda) of 100% and an efficacy (Boophilus microplus) of 100%.
Work on COc1cc(C(=O)Nc2cc(-c3cnn(-c4c(C)cc(C(F)(C(F)(F)F)C(F)(F)F)cc4C(F)(F)F)c3)ccc2F)ccc1F [Example 28] yielded an efficacy (Phaedon cochleariae) of 100%.
With Cc1cc(C(=O)Nc2cc(-c3cnn(-c4c(C)cc(C(F)(C(F)(F)F)C(F)(F)F)cc4C(F)(F)F)c3)ccc2F)ccc1F [Example 53] the efficacy (Musca domestica) was 100%, the efficacy (Ctenocephalides felis) was 100% and the efficacy (Boophilus microplus) was 100%.
Cc1cc(C(F)(C(F)(F)F)C(F)(F)F)cc(C(F)(F)F)c1-n1cc(-c2cc(NC(=O)c3ccccc3)ccc2F)cn1 [Example 2-10] gave an efficacy (Boophilus microplus) of 100%.
In the case of COc1cc(C(=O)Nc2cccc(-c3cnn(-c4c(C)cc(C(F)(C(F)(F)F)C(F)(F)F)cc4C(F)(F)F)c3)c2F)ccc1F [Example 71], the efficacy (Phaedon cochleariae) was 100%, the efficacy (Ctenocephalides felis) was 100% and the efficacy (Spodoptera frugiperda) was 100%. For the same molecule, the efficacy (Boophilus microplus) was 100%.
COc1cccc(C(=O)Nc2cccc(-c3cnn(-c4c(C)cc(C(F)(C(F)(F)F)C(F)(F)F)cc4C(F)(F)F)c3)c2F)c1 [Example 73] gave an efficacy (Phaedon cochleariae) of 100%, an efficacy (Lucilia cuprina) of 100% and an efficacy (Ctenocephalides felis) of 100%. The efficacy (Spodoptera frugiperda) was 100% and the efficacy (Boophilus microplus) was 100%.
Cc1cc(C(F)(C(F)(F)F)C(F)(F)F)cc(C(F)(F)F)c1-n1cc(-c2ccc(F)c(NC(=O)c3ccc(Cl)c(F)c3)c2)cn1 [Example 56] showed an efficacy (Lucilia cuprina) of 100%, an efficacy (Ctenocephalides felis) of 100% and an efficacy (Boophilus microplus) of 100%.
COc1cc(C(=O)Nc2ccc(F)c(-c3cnn(-c4c(C)cc(C(F)(C(F)(F)F)C(F)(F)F)cc4C(F)(F)F)c3)c2)ccc1F [Example 2-5] showed an efficacy (Boophilus microplus) of 100%.
With CCOc1cc(C(=O)Nc2cc(-c3cnn(-c4c(C)cc(C(F)(C(F)(F)F)C(F)(F)F)cc4C(F)(F)F)c3)ccc2F)ccc1F [Example 29] the efficacy (Ctenocephalides felis) was 80% and the efficacy (Boophilus microplus) was 100%.
